Source: ChEMBL document CHEMBL1154280, “Identification and characterization of a small molecule inhibitor of Fatty Acid binding proteins” (J Med Chem, 2009)
Active and inactive are the calls of the source. No cut-off for these calls is given here.

Columns and labels:
[1] = target: T1, Peroxisome proliferator-activated receptor gamma (Mus musculus) (UniProt P37238); assay: Binding affinity to PPARgamma in C57BL/6J mouse macrophages assessed as increase in Cpt1alpha mRNA level at 5 uM after 48 hrs by real-time PCR analysis
T1 sequence (whole entry): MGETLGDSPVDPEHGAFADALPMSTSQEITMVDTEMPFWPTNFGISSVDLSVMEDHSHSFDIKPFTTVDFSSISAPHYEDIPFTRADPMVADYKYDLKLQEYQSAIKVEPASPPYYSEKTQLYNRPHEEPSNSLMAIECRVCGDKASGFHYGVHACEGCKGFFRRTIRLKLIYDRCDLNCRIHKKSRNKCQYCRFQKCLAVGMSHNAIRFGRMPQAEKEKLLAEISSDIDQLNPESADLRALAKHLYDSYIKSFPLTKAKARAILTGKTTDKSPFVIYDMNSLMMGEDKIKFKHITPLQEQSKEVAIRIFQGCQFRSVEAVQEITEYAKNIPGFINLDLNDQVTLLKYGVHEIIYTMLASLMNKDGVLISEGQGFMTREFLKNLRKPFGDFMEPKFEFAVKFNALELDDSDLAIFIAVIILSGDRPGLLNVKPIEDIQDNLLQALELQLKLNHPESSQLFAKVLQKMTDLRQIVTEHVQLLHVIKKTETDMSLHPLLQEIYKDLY

[2] = target: T1, Peroxisome proliferator-activated receptor gamma (Mus musculus); assay: Binding affinity to PPARgamma in C57BL/6J mouse macrophages assessed as increase in CD36 mRNA level at 5 uM after 48 hrs by real-time PCR analysis
[3] = target: T1, Peroxisome proliferator-activated receptor gamma (Mus musculus); assay: Binding affinity to PPARgamma in C57BL/6J mouse macrophages assessed as increase in Cpt1alpha mRNA level at 500 nM after 48 hrs by real-time PCR analysis
[4] = target: T2, Fatty acid-binding protein, intestinal (Homo sapiens, UniProt P12104); assay: Displacement of […] 1-anilinonaphthalene 8-sulfonic acid from IFABP expressed in Escherichia coli BL21 (DE3) by fluorescence spectrophotometry
T2 sequence (P12104 whole entry): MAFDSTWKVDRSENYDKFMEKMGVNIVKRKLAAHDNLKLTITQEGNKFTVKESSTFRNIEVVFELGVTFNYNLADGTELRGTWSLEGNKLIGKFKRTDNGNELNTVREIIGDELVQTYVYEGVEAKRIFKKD

[5] = target: T3, Fatty acid-binding protein, adipocyte (Homo sapiens, UniProt P15090); assay: Binding affinity to AFABP in forskolin-stimulated […] C8PA cells assessed as blocked of protein interaction with hormone sensitive lipase at 10 uM after 2 to 4 hrs by FRET analysis; type: cell-based
Target sequence in this assay (P15090 2-132 limits assumed): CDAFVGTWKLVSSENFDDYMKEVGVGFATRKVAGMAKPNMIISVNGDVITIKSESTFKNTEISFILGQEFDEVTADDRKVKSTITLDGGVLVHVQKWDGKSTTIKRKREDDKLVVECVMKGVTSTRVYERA

[6] = target: Fatty acid-binding protein, heart (Homo sapiens, UniProt P05413); assay: Displacement of […] 1-anilinonaphthalene 8-sulfonic acid from HFABP expressed in Escherichia coli BL21 (DE3) by fluorescence spectrophotometry
[7] = target: T4, Fatty acid-binding protein, liver (Homo sapiens, UniProt P07148); assay: Displacement of […] 1-anilinonaphthalene 8-sulfonic acid from LFABP expressed in Escherichia coli BL21 (DE3) by fluorescence spectrophotometry
T4 sequence (P07148 whole entry): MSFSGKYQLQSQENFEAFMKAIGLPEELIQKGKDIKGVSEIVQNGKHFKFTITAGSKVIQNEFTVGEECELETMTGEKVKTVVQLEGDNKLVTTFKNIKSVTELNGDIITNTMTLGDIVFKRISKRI

Macrophage [8] = assay: Antiinflammatory activity in C57BL/6J mouse macrophages assessed as inhibition of LPS-stimulated IL6 release pretreated for 48 hrs before LPS challenge measured after 24 hrs by ELISA; type: functional, cell-based
[9] = target: T3, Fatty acid-binding protein, adipocyte; assay: Binding affinity to AFABP in […] C8PA cells assessed as blocked of protein interaction with hormone sensitive lipase at 10 uM after 2 to 4 hrs by FRET analysis; type: cell-based
Target sequence in this assay (P15090 2-132 limits assumed): as the sequence (P15090 2-132 limits assumed) above

[10] = target: T3, Fatty acid-binding protein, adipocyte; assay: Binding affinity to AFABP in […] C8PA cells assessed as blocked of protein interaction with hormone sensitive lipase at 1 uM after 2 to 4 hrs by FRET analysis; type: cell-based
Target sequence in this assay (P15090 2-132 limits assumed): as the sequence (P15090 2-132 limits assumed) above

[11] = target: T1, Peroxisome proliferator-activated receptor gamma (Mus musculus); assay: Binding affinity to PPARgamma in C57BL/6J mouse macrophages assessed as increase in CD36 mRNA level at 500 nM after 48 hrs by real-time PCR analysis
Macrophage [12] = assay: Antiinflammatory activity in C57BL/6J mouse macrophages assessed as inhibition of LPS-stimulated TNFalpha release pretreated for 48 hrs before LPS challenge measured after 24 hrs by ELISA; type: functional, cell-based
[13] = target: T3, Fatty acid-binding protein, adipocyte; assay: Binding affinity to AFABP in forskolin-stimulated […] C8PA cells assessed as blocked of protein interaction with hormone sensitive lipase at 1 uM after 2 to 4 hrs by FRET analysis; type: cell-based
Target sequence in this assay (P15090 2-132 limits assumed): as the sequence (P15090 2-132 limits assumed) above

[14] = target: T3, Fatty acid-binding protein, adipocyte; assay: Displacement of […] 1-anilinonaphthalene 8-sulfonic acid from AFABP expressed in Escherichia coli BL21 (DE3) by fluorescence spectrophotometry
Target sequence in this assay (P15090 whole entry): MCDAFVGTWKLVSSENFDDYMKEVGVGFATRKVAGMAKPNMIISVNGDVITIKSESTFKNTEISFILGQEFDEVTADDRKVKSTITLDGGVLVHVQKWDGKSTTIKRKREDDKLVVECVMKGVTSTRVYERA

Macrophage [15] = assay: Antiinflammatory activity in C57BL/6J mouse macrophages assessed as inhibition of LPS-stimulated MCP1 release pretreated for 48 hrs before LPS challenge measured after 24 hrs by ELISA; type: functional, cell-based
[16] = target: T5, Peroxisome proliferator-activated receptor gamma (Homo sapiens) (UniProt P37231); assay: Activation of PPARgamma expressed in african green monkey CV1 cells at 0.5 to 25 uM after 24 hrs by luciferase reporter gene assay; type: cell-based; settings: CV-1
T5 sequence (whole entry): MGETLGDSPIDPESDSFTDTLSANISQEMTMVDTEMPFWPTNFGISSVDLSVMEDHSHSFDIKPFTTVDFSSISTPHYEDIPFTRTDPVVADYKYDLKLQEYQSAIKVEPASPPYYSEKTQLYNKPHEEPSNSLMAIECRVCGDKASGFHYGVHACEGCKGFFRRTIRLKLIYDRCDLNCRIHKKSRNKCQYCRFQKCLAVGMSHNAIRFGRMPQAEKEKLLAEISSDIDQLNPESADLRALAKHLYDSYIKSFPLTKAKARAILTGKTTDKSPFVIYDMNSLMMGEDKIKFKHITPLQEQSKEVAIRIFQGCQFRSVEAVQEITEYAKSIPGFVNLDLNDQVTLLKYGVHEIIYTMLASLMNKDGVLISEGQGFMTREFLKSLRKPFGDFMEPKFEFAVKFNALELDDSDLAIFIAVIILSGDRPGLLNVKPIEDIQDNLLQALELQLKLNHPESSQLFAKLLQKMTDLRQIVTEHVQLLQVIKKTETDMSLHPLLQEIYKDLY

[17] = target: Fatty acid-binding protein 5 (Homo sapiens, UniProt Q01469); assay: Displacement of […] 1-anilinonaphthalene 8-sulfonic acid from EFABP expressed in Escherichia coli BL21 (DE3) by fluorescence spectrophotometry
Chain of Fatty acid-binding protein 5 (Q01469 whole entry): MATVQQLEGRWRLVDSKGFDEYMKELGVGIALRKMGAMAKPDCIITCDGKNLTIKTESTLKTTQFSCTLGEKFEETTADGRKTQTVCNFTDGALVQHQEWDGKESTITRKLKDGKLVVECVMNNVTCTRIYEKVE

Chain of Fatty acid-binding protein, heart (P05413 whole entry): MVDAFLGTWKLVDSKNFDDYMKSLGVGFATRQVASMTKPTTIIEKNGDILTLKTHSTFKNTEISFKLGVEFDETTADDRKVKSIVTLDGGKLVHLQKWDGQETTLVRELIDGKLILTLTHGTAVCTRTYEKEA

| SMILES | Activity [1] | Activity [2] | Activity [3] | Ki [4] | Activity [5] | Ki [6] | Ki [7] | Activity (Macrophage [8]) | Activity [9] | Activity [10] | Activity [11] | Activity (Macrophage [12]) | Activity [13] | Ki [14] | Activity (Macrophage [15]) | Activity [16] | Ki [17] |
| --- | --- | --- | --- | --- | --- | --- | --- | --- | --- | --- | --- | --- | --- | --- | --- | --- | --- |
| CCCCC/C=C/C=C1/C(=O)C=C[C@@H]1C/C=C\CCCC(=O)O | Active | Active |  |  |  |  |  |  |  |  |  |  |  |  |  |  |  |
| COC(=O)c1sc(-c2cccs2)cc1NC(=O)/C=C/C(=O)O |  |  | inactive | 6.57 µM | Active | 9.07 µM | 8.17 µM | Active | Active | Active | inactive | Active | inactive | 670 nM | Active | inactive | 3.4 µM |
